{"source": "patent EP4803159A2", "about": "“CONJUGATE OF SALICYLIC ACID AND PEPTIDE” (Caregen Co., Ltd., priority 2017, dated 2018)", "key": {"[1]": {"conditions": "distilled water, concentration of 10 mg/ml; FIG. 1"}, "[2]": {"tested_on": "TNF-a, IL-6, IL-1b, and COX-2", "assay": "Anti-inflammatory effect, Propionibacterium acnes-induced inflammatory cytokine mRNA expression in keratinocytes (RT-PCR)", "format": "cell-based", "conditions": "keratinocyte, 50 µg/ml Propionibacterium acnes, 50 µM compound, 24 hours; FIG. 8", "description": "Anti-inflammatory effects of the compounds of the present disclosure were examined using Propionibacterium acnes. To this end, keratinocyte was seeded in a 6-well plate at a density of 300,000 cells per well, and then incubated in a DMEM culture medium (Gibco, USA) containing 10% FBS for 24 hours under conditions of 37°C and 5% CO2. After replacing the medium by a fresh medium, the cells were treated with 50 µg/ml of Propionibacterium acnes, and then the treated Propionibacterium acnes was treated with each 50 µM of the compound 1 and the compound 3 of the present disclosure and salicylic acid used as the positive control, followed by incubation for 24 hours under the same conditions as above. RNA was isolated from the cells, and cDNA was synthesized using a cDNA synthesis kit (Intron, Korea). PCR premix (Intron, Korea) and primers for each of TNF-a, IL-6, IL-1b, and COX-2 in Table 3 below were used to perform PCR. mRNA levels of TNF-a, IL-6, IL-1b and COX-2 were determined by 5% agarose gel electrophoresis."}, "[3]": {"tested_on": "HaCaT keratinocyte cell line", "assay": "Keratinocyte growth, sulforhodamine B (SRB) colorimetric assay", "format": "cell-based", "conditions": "50 µM, 72 hours, serum-free medium, SRB absorbance at 560 nm, FIG. 2B", "description": "To analyze growth factor-like efficacy and inhibitory efficacy of the compounds synthesized in Example <1-2>, a sulforhodamine B (SRB Sigma) colorimetric assay was performed using a HaCaT keratinocyte cell line (Korean Cell Line Bank) in accordance with a method of Rizzino, et al. (Cancer Res. 48:4266(1988))\nHaCaT keratinocyte cell line was seeded in a 96-well plate at a density of 3,000 cells per well, and then cultured in Dulbecco's modified Eagle's medium (DMEM, Gibco, USA) containing 10% fetal bovine serum (FBS, Sigma) for 24 hours under conditions of 37°C and 5% CO2. The cultured cell line was detached from the bottom of the culture plate using a 1% trypsin solution, and only cell precipitate was collected by centrifugation. The cell precipitate was suspended in DMEM without FBS, and then cultured for 24 hours under conditions of 37°C and 5% CO2. 24 hours later, the medium was replaced by the same medium from which serum was completely removed. A blank sample in which the cell precipitate was dissolved sterile in 10% DMSO was prepared for standardization. Each of the compound 1 to the compound 4 (50 µM) of the present disclosure, salicylic acid (50 µM), and EGF (100 nM) as a positive control were treated. Incubation was carried out under the same conditions as above for 72 hours. […] Absorbance at UV 560 nm was measured to determine cell viability."}}}
{"smiles": "O=C(O)c1ccccc1O", "note": "[salicylic acid, 2-hydroxybenzoic acid]", "values": [{"measurement": "solubility in water", "setting": "[1]", "result": "hardly dissolved in water"}, {"measurement": "expression of inflammatory cytokines induced by Propionibacterium acnes", "setting": "[2]", "result": "hardly inhibited expression"}, {"measurement": "growth of keratinocytes", "setting": "[3]", "result": "inhibited growth of keratinocytes due to toxicity"}]}
